Values quoted from earlier work as cited in publication PMC9604775, “Bioactive Peptides from Skipjack Tuna Cardiac Arterial Bulbs: Preparation, Identification, Antioxidant Activity, and Stability against Thermal, pH, and Simulated Gastrointestinal Digestion Treatments” (Marine Drugs, 2022).

Assays:
Conditions in all cases: literature value; cited from earlier work
[1] = set-up: method as in 10 sources, ref 24 = [24]; PMID 35127795; doi:10.3389/fnut.2021.813780; 24. Wang J. Wang Y.M. Li L.Y. Chi C.F. Wang B. Twelve antioxidant peptides from protein hydrolysate of Skipjack tuna ( Katsuwonus pelamis ) roe prepared by flavourzyme: Purification, sequence identifi ||| ref 55 = [55]; doi:10.1016/j.jff.2016.06.008; 55. Pan X. Zhao Y.Q. Hu F.Y. Wang B. Preparation and identification of antioxidant peptides from protein hydrolysate of skate (Raja porosa) cartilage J. Funct. Foods 2016 25 220 230 10.1016/j.jff.2016 ||| ref 48 = [48]; PMID 31035632; doi:10.3390/md17050251; 48. Yang X.R. Qiu Y.T. Zhao Y.Q. Chi C.F. Wang B. Purification and characterization of antioxidant peptides derived from protein hydrolysate of the marine bivalve mollusk Tergillarca granosa Mar Drugs ||| ref 15 = [15]; doi:10.1016/j.jff.2018.06.014; 15. Zhao W.H. Luo Q.B. Pan X. Chi C.F. Sun K.L. Wang B. Preparation, identification, and activity evaluation of ten antioxidant peptides from protein hydrolysate of swim bladders of miiuy croaker ( Mi ||| ref 47 = [47]; PMID 35531284; doi:10.3389/fmicb.2022.791248; 47. Sun K. Gao M. Wang Y.Z. Li X.R. Wang P. Wang B. Antioxidant peptides from protein hydrolysate of marine red algae Eucheuma cottonii : Preparation, identification, and cytoprotective mechanisms on ||| ...
[2] = set-up: method as in 10 sources, ref 51 = [51]; doi:10.1016/j.jff.2015.04.042; 51. Cai L. Wu X. Zhang Y. Li X. Ma S. Li J. Purification and characterization of three antioxidant peptides from protein hydrolysate of grass carp ( Ctenopharyngodon idella ) skin J. Funct. Foods 2015 ||| ref 42 = [42]; PMID 35621976; doi:10.3390/md20050325; 42. Sheng Y. Qiu Y.T. Wang Y.M. Chi C.F. Wang B. Novel antioxidant collagen peptides of Siberian sturgeon ( Acipenser baerii ) cartilages: The preparation, characterization, and cytoprotection of H 2 ||| ref 24 = [24]; PMID 35127795; doi:10.3389/fnut.2021.813780; 24. Wang J. Wang Y.M. Li L.Y. Chi C.F. Wang B. Twelve antioxidant peptides from protein hydrolysate of Skipjack tuna ( Katsuwonus pelamis ) roe prepared by flavourzyme: Purification, sequence identifi ||| ref 48 = [48]; PMID 31035632; doi:10.3390/md17050251; 48. Yang X.R. Qiu Y.T. Zhao Y.Q. Chi C.F. Wang B. Purification and characterization of antioxidant peptides derived from protein hydrolysate of the marine bivalve mollusk Tergillarca granosa Mar Drugs ||| ref 43 = [43]; doi:10.1016/j.foodres.2010.02.009; 43. You L. Zhao M. Regenstein J.M. Ren J. Purification and identification of antioxidant peptides from loach ( Misgurnus anguillicaudatus ) protein hydrolysate by consecutive chromatography and electr ||| ...
[3] = set-up: method as in 10 sources, ref 24 = [24]; PMID 35127795; doi:10.3389/fnut.2021.813780; 24. Wang J. Wang Y.M. Li L.Y. Chi C.F. Wang B. Twelve antioxidant peptides from protein hydrolysate of Skipjack tuna ( Katsuwonus pelamis ) roe prepared by flavourzyme: Purification, sequence identifi ||| ref 43 = [43]; doi:10.1016/j.foodres.2010.02.009; 43. You L. Zhao M. Regenstein J.M. Ren J. Purification and identification of antioxidant peptides from loach ( Misgurnus anguillicaudatus ) protein hydrolysate by consecutive chromatography and electr ||| ref 44 = [44]; doi:10.1016/j.jff.2015.03.045; 44. Chi C.F. Hu F.Y. Wang B. Li T. Ding G.F. Antioxidant and anticancer peptides from protein hydrolysate of blood clam ( Tegillarca granosa ) muscle J. Funct. Foods 2015 15 301 313 10.1016/j.jff.2015 ||| ref 42 = [42]; PMID 35621976; doi:10.3390/md20050325; 42. Sheng Y. Qiu Y.T. Wang Y.M. Chi C.F. Wang B. Novel antioxidant collagen peptides of Siberian sturgeon ( Acipenser baerii ) cartilages: The preparation, characterization, and cytoprotection of H 2 ||| ref 45 = [45]; PMID 23411302; doi:10.1016/j.foodchem.2012.12.002; 45. Wang B. Li L. Chi C.F. Ma J.H. Luo H.Y. Xu Y.F. Purification and Characterization of a novel antioxidant peptide derived from blue mussel ( Mytilus edulis ) protein hydrolysate Food Chem. 2013 138 ||| ...

In the case of “YAVT [literature antioxidant peptide from Eucheuma cottonii]”, the “EC50 O2^−·” value [1] is given as 560 µg/mL.
In the case of “LKQELEDLLEKQE [literature antioxidant peptide from Pacific oyster]”, the “EC50 HO·” value [2] is given as 46 µg/mL.
In the case of “PSYV [literature antioxidant peptide from pond loach meat]”, the “EC50 HO·” value [2] is listed as 2640 µg/mL and the “EC50 DPPH·” value [3] is listed as 2640 µg/mL.
In the case of “QAEP [literature antioxidant peptide from tuna roes]”, the “EC50 O2^−·” value [1] is listed as 2916 µg/mL.
In the case of “GPEGPMGLE [literature antioxidant peptide from redlip croaker scales]”, the “EC50 HO·” value [2] is listed as 450 µg/mL, the “EC50 O2^−·” value [1] is listed as 620 µg/mL and the “EC50 DPPH·” value [3] is listed as 590 µg/mL.
For “NADFGLNGLEGLA [literature antioxidant peptide from giant squid]”, the “EC50 HO·” value [2] is listed as 612 µg/mL.
In the case of “NGLEGLK [literature antioxidant peptide from giant squid]”, the “EC50 O2^−·” value [1] is given as 420 µg/mL.
In the case of “TTANIEDRR [literature antioxidant peptide from salmon pectoral fin]”, the “EC50 DPPH·” value [3] is listed as 2500 µg/mL.
In the case of “IELFPGLP [literature antioxidant peptide from Siberian sturgeon cartilages]”, the “EC50 HO·” value [2] is listed as 1630 µg/mL and the “EC50 DPPH·” value [3] is listed as 1380 µg/mL.
In the case of “VPDDD [literature antioxidant peptide from Miichthys miiuy swim bladders]”, the “EC50 O2^−·” value [1] is given as 4110 µg/mL.
In the case of “FYKA [literature antioxidant peptide from Eucheuma cottonii]”, the “EC50 O2^−·” value [1] is given as 1910 µg/mL and the “EC50 DPPH·” value [3] is given as 2560 µg/mL.
In the case of “VGGRP [literature antioxidant peptide from grass carp skin]”, the “EC50 HO·” value [2] is given as 2060 µg/mL.
For “YSKT [literature antioxidant peptide from Eucheuma cottonii]”, the “EC50 DPPH·” value [3] is listed as 1710 µg/mL.
For “EYEA [literature antioxidant peptide from Antarctic krill]”, the “EC50 HO·” value [2] is listed as 946 µg/mL and the “EC50 O2^−·” value [1] is listed as 793 µg/mL.
In the case of “EGPFGPEG [literature antioxidant peptide from redlip croaker scales]”, the “EC50 O2^−·” value [1] is listed as 470 µg/mL and the “EC50 DPPH·” value [3] is listed as 370 µg/mL.
For “WLDPDG [literature antioxidant peptide from T. granosa]”, the “EC50 HO·” value [2] is listed as 1540 µg/mL.
In the case of “FIMGPY [literature antioxidant peptide from skate cartilages]”, the “EC50 O2^−·” value [1] is listed as 1610 µg/mL.
For “GFYAA [literature antioxidant peptide from Miichthys miiuy swim bladders]”, the “EC50 O2^−·” value [1] is listed as 3030 µg/mL.
In the case of “EPLSD [literature antioxidant peptide from blood cockle]”, the “EC50 O2^−·” value [1] is given as 2040 µg/mL.
In the case of “YPPAK [literature antioxidant peptide from Mytilus edulis]”, the “EC50 HO·” value [2] is given as 228 µg/mL, the “EC50 O2^−·” value [1] is given as 72 µg/mL and the “EC50 DPPH·” value [3] is given as 2620 µg/mL.
For “QDHKA [literature antioxidant peptide from tuna milts]”, the “EC50 HO·” value [2] is given as 536 µg/mL.
In the case of “SLPY [literature antioxidant peptide from Antarctic krill]”, the “EC50 HO·” value [2] is given as 826 µg/mL.
In the case of “PYGAKG [literature antioxidant peptide from S. niphonius skins]”, the “EC50 O2^−·” value [1] is listed as 800 µg/mL.
In the case of “GFIGPTE [literature antioxidant peptide from redlip croaker scales]”, the “EC50 O2^−·” value [1] is given as 740 µg/mL and the “EC50 DPPH·” value [3] is given as 450 µg/mL.
